From patent publication US8455475B2 (Gruenenthal GmbH, priority 2009, dated 2013)

The molecules below were run against T1, rat B1R (bradykinin receptor 1) (Rattus norvegicus, UniProt P97583) (assay: FLIPR Ca2+ assay (Fluo-4) on CHO K1 cells stably transfected with the B1R gene of the rat (rB1R cells): % inhibition at 10 μM / IC50, agonist Des-Arg9-bradykinin). Conditions: CHO-K1, rat B1R.
T1 construct: expressed in transfected cells; host or cells: CHO K1 cells
T1 sequence (P97583 1-337): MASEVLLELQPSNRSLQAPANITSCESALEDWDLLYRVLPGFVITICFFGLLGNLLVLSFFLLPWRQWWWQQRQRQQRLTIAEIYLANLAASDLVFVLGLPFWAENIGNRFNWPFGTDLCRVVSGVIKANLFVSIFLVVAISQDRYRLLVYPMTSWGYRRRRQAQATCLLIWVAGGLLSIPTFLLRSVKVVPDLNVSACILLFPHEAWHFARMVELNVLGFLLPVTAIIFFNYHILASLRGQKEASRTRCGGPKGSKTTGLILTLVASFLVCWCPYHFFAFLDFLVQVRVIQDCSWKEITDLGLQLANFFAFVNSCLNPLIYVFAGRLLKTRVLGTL
Format: cell-based
Procedure, shortened: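 Stably transfected CHO K1 cells loaded with Fluo-4 and read on FLIPR (λex 488, λem 540 nm; peak fluorescence). Test substance (10 μM) added first, then after 10–20 min the agonist at EC80; % inhibition versus maximum achievable inhibition. IC50 from several concentrations, n=2–3, N≥2.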

With CN(C(=O)c1ccc(F)cc1C(F)(F)F)C1CCc2ccc(C(=O)N3CCC4(CC3)CCN(c3ccncc3)CC4)cc21 (stereo not drawn) [IND_CC-380, 4-Fluoro-N-methyl-N-[6-(9-pyridin-4-yl-3,9-diazaspiro[5.5]undecane-3-carbonyl)-2,3-dihydro-1H-inden-1-yl]-2-(trifluoromethyl)-benzamide] as the molecule, how does the inhibition at 10 µM read?
The inhibition at 10 µM was 103%.

How did the inhibition at 10 µM turn out when O=C(NC1CCc2ccc(C(=O)N3CCC4(CC3)CCN(c3ccncc3)C4)cc21)c1ccc(F)cc1C(F)(F)F (stereo not drawn) [IND_CC-381, 4-Fluoro-N-[6-(2-pyridin-4-yl-2,8-diazaspiro[4.5]decane-8-carbonyl)-2,3-dihydro-1H-inden-1-yl]-2-(trifluoromethyl)-benzamide] was run?
Its inhibition at 10 µM is 104%.

How did the inhibition at 10 µM turn out when O=C(NC1CCc2ccc(C(=O)N3CCC4(CCN(c5ccncc5)CC4)C3)cc21)c1ccc(F)cc1C(F)(F)F (stereo not drawn) [IND_CC-382, 4-Fluoro-N-[6-(8-pyridin-4-yl-2,8-diazaspiro[4.5]decane-2-carbonyl)-2,3-dihydro-1H-inden-1-yl]-2-(trifluoromethyl)-benzamide] was run?
The inhibition at 10 µM was 103%.

Which inhibition at 10 µM does the source give for O=C(NC1CCc2ccc(C(=O)N3CCC4(CC3)CCN(c3ccncc3)CC4)cc21)c1c(F)cccc1F (stereo not drawn) [IND_CC-383, 2,6-Difluoro-N-[6-(9-pyridin-4-yl-3,9-diazaspiro[5.5]undecane-3-carbonyl)-2,3-dihydro-1H-inden-1-yl]-benzamide] here?
Its inhibition at 10 µM is 102%.

CN(C(=O)c1c(F)cccc1F)C1CCc2ccc(C(=O)N3CCC4(CC3)CCN(c3ccncc3)CC4)cc21 (stereo not drawn) [IND_CC-384, 2,6-Difluoro-N-methyl-N-[6-(9-pyridin-4-yl-3,9-diazaspiro[5.5]undecane-3-carbonyl)-2,3-dihydro-1H-inden-1-yl]-benzamide] was tested. Which inhibition at 10 µM did it give?
Its inhibition at 10 µM is 104%.

How did the inhibition at 10 µM turn out when O=C(NC1CCc2ccc(C(=O)N3CCC4(CC3)CCN(c3ccncc3)C4)cc21)c1c(F)cccc1F (stereo not drawn) [IND_CC-385, 2,6-Difluoro-N-[6-(2-pyridin-4-yl-2,8-diazaspiro[4.5]decane-8-carbonyl)-2,3-dihydro-1H-inden-1-yl]-benzamide] was run?
The inhibition at 10 µM was 104%.

Which inhibition at 10 µM does the source give for O=C(NC1CCc2ccc(C(=O)N3CCC4(CCN(c5ccncc5)CC4)C3)cc21)c1c(F)cccc1F (stereo not drawn) [IND_CC-386, 2,6-Difluoro-N-[6-(8-pyridin-4-yl-2,8-diazaspiro[4.5]decane-2-carbonyl)-2,3-dihydro-1H-inden-1-yl]-benzamide] here?
The inhibition at 10 µM was 104%.

Which inhibition at 10 µM does the source give for Cc1cccc(C(=O)N(C)C2CCc3ccc(C(=O)N4CCC5(CC4)CCN(c4ccncc4)CC5)cc32)c1C (stereo not drawn) [IND_CC-387, N,2,3-Trimethyl-N-[6-(9-pyridin-4-yl-3,9-diazaspiro[5.5]undecane-3-carbonyl)-2,3-dihydro-1H-inden-1-yl]-benzamide] here?
Its inhibition at 10 µM is 104%.

For Cc1cccc(C(=O)NC2CCc3ccc(C(=O)N4CCC5(CC4)CCN(c4ccncc4)C5)cc32)c1C (stereo not drawn) [IND_CC-388, 2,3-Dimethyl-N-[6-(2-pyridin-4-yl-2,8-diazaspiro[4.5]decane-8-carbonyl)-2,3-dihydro-1H-inden-1-yl]-benzamide], which inhibition at 10 µM is on record?
Its inhibition at 10 µM is 101%.

Cc1cccc(C(=O)NC2CCc3ccc(C(=O)N4CCC5(CCN(c6ccncc6)CC5)C4)cc32)c1C (stereo not drawn) [IND_CC-389, 2,3-Dimethyl-N-[6-(8-pyridin-4-yl-2,8-diazaspiro[4.5]decane-2-carbonyl)-2,3-dihydro-1H-inden-1-yl]-benzamide] was tested. Which inhibition at 10 µM did it give?
Its inhibition at 10 µM is 103%.

For CN(C1CCc2ccc(C(=O)N3CCC4(CC3)CCN(c3ccncc3)CC4)cc21)S(=O)(=O)Cc1cccc(C(F)(F)F)c1 (stereo not drawn) [IND_CC-390, N-Methyl-N-[6-(9-pyridin-4-yl-3,9-diazaspiro[5.5]undecane-3-carbonyl)-2,3-dihydro-1H-inden-1-yl]-1-[3-(trifluoromethyl)phenyl]-methanesulfonic acid amide], which inhibition at 10 µM is on record?
The inhibition at 10 µM was 100%.

How did the inhibition at 10 µM turn out when O=C(NC1CCc2ccc(C(=O)N3CCC4(CC3)CCN(c3ccncc3)CC4)cc21)C1CCCC1 (stereo not drawn) [IND_CC-391, N-[6-(9-Pyridin-4-yl-3,9-diazaspiro[5.5]undecane-3-carbonyl)-2,3-dihydro-1H-inden-1-yl]-cyclopentanecarboxylic acid amide] was run?
The inhibition at 10 µM was 103%.

CN(C(=O)C1CCCC1)C1CCc2ccc(C(=O)N3CCC4(CC3)CCN(c3ccncc3)CC4)cc21 (stereo not drawn) [IND_CC-392, N-Methyl-N-[6-(9-pyridin-4-yl-3,9-diazaspiro[5.5]undecane-3-carbonyl)-2,3-dihydro-1H-inden-1-yl]-cyclopentanecarboxylic acid amide] was tested. Which inhibition at 10 µM did it give?
The inhibition at 10 µM was 102%.

Which inhibition at 10 µM does the source give for O=C(NC1CCc2ccc(C(=O)N3CCC4(CC3)CCN(c3ccncc3)C4)cc21)C1CCCC1 (stereo not drawn) [IND_CC-393, N-[6-(2-Pyridin-4-yl-2,8-diazaspiro[4.5]decane-8-carbonyl)-2,3-dihydro-1H-inden-1-yl]-cyclopentanecarboxylic acid amide] here?
The inhibition at 10 µM was 103%.

With O=C(NC1CCc2ccc(C(=O)N3CCC4(CCN(c5ccncc5)CC4)C3)cc21)C1CCCC1 (stereo not drawn) [IND_CC-394, N-[6-(8-Pyridin-4-yl-2,8-diazaspiro[4.5]decane-2-carbonyl)-2,3-dihydro-1H-inden-1-yl]-cyclopentanecarboxylic acid amide] as the molecule, how does the inhibition at 10 µM read?
The inhibition at 10 µM was 103%.

Which inhibition at 10 µM does the source give for CN(C(=O)c1ccc(C(F)(F)F)cn1)C1CCc2ccc(C(=O)N3CCC4(CC3)CCN(c3ccncc3)CC4)cc21 (stereo not drawn) [IND_CC-395, N-Methyl-N-[6-(9-pyridin-4-yl-3,9-diazaspiro[5.5]undecane-3-carbonyl)-2,3-dihydro-1H-inden-1-yl]-5-(trifluoromethyl)-pyridine-2-carboxylic acid amide] here?
The inhibition at 10 µM was 58%.

O=C(NC1CCc2ccc(C(=O)N3CCC4(CCN(c5ccncc5)CC4)C3)cc21)c1ccc(C(F)(F)F)cn1 (stereo not drawn) [IND_CC-396, N-[6-(8-Pyridin-4-yl-2,8-diazaspiro[4.5]decane-2-carbonyl)-2,3-dihydro-1H-inden-1-yl]-5-(trifluoromethyl)-pyridine-2-carboxylic acid amide] was tested. Which inhibition at 10 µM did it give?
The inhibition at 10 µM was 81%.

With O=C(NC1CCc2ccc(C(=O)N3CCC4(CC3)CCN(c3ccncc3)CC4)cc21)c1cnccn1 (stereo not drawn) [IND_CC-397, N-[6-(9-Pyridin-4-yl-3,9-diazaspiro[5.5]undecane-3-carbonyl)-2,3-dihydro-1H-inden-1-yl]-pyrazine-2-carboxylic acid amide] as the molecule, how does the inhibition at 10 µM read?
The inhibition at 10 µM was 68%.

For O=C(NC1CCc2ccc(C(=O)N3CCC4(CCN(c5ccncc5)CC4)C3)cc21)c1cnccn1 (stereo not drawn) [IND_CC-398, N-[6-(8-Pyridin-4-yl-2,8-diazaspiro[4.5]decane-2-carbonyl)-2,3-dihydro-1H-inden-1-yl]-pyrazine-2-carboxylic acid amide], which inhibition at 10 µM is on record?
The inhibition at 10 µM was 88%.

Which inhibition at 10 µM does the source give for O=C(NC1CCc2ccc(C(=O)N3CCC4(CC3)CCN(c3ccncc3)CC4)cc21)c1ccccc1F (stereo not drawn) [IND_CC-399, 2-Fluoro-N-[6-(9-pyridin-4-yl-3,9-diazaspiro[5.5]undecane-3-carbonyl)-2,3-dihydro-1H-inden-1-yl]-benzamide] here?
The inhibition at 10 µM was 101%.

Which inhibition at 10 µM does the source give for CN(C(=O)c1ccccc1F)C1CCc2ccc(C(=O)N3CCC4(CC3)CCN(c3ccncc3)CC4)cc21 (stereo not drawn) [IND_CC-400, 2-Fluoro-N-methyl-N-[6-(9-pyridin-4-yl-3,9-diazaspiro[5.5]undecane-3-carbonyl)-2,3-dihydro-1H-inden-1-yl]-benzamide] here?
The inhibition at 10 µM was 103%.

With O=C(NC1CCc2ccc(C(=O)N3CCC4(CC3)CCN(c3ccncc3)C4)cc21)c1ccccc1F (stereo not drawn) [IND_CC-401, 2-Fluoro-N-[6-(2-pyridin-4-yl-2,8-diazaspiro[4.5]decane-8-carbonyl)-2,3-dihydro-1H-inden-1-yl]-benzamide] as the molecule, how does the inhibition at 10 µM read?
Its inhibition at 10 µM is 103%.

With O=C(NC1CCc2ccc(C(=O)N3CCC4(CCN(c5ccncc5)CC4)C3)cc21)c1ccccc1F (stereo not drawn) [IND_CC-402, 2-Fluoro-N-[6-(8-pyridin-4-yl-2,8-diazaspiro[4.5]decane-2-carbonyl)-2,3-dihydro-1H-inden-1-yl]-benzamide] as the molecule, how does the inhibition at 10 µM read?
The inhibition at 10 µM was 102%.

CN(C1CCc2ccc(C(=O)N3CCC4(CC3)CCN(c3ccncc3)CC4)cc21)S(=O)(=O)c1c(Cl)cc(C(F)(F)F)cc1Cl (stereo not drawn) [IND_CC-403, 2,6-Dichloro-N-methyl-N-[6-(9-pyridin-4-yl-3,9-diazaspiro[5.5]undecane-3-carbonyl)-2,3-dihydro-1H-inden-1-yl]-4-(trifluoromethyl)-benzenesulfonic acid amide] was tested. Which inhibition at 10 µM did it give?
Its inhibition at 10 µM is 97%.

How did the inhibition at 10 µM turn out when O=C(c1ccc2c(c1)C(NS(=O)(=O)c1c(Cl)cc(C(F)(F)F)cc1Cl)CC2)N1CCC2(CCN(c3ccncc3)CC2)C1 (stereo not drawn) [IND_CC-404, 2,6-Dichloro-N-[6-(8-pyridin-4-yl-2,8-diazaspiro[4.5]decane-2-carbonyl)-2,3-dihydro-1H-inden-1-yl]-4-(trifluoromethyl)-benzenesulfonic acid amide] was run?
The inhibition at 10 µM was 92%.

CN(C1CCc2ccc(C(=O)N3CCC4(CC3)CCN(c3ccncc3)CC4)cc21)S(=O)(=O)c1ccc(Br)cc1Cl (stereo not drawn) [IND_CC-405, 4-Bromo-2-chloro-N-methyl-N-[6-(9-pyridin-4-yl-3,9-diazaspiro[5.5]undecane-3-carbonyl)-2,3-dihydro-1H-inden-1-yl]-benzenesulfonic acid amide] was tested. Which inhibition at 10 µM did it give?
Its inhibition at 10 µM is 96%.

Which inhibition at 10 µM does the source give for CN(C1CCc2ccc(C(=O)N3CCC4(CC3)CCN(c3ccncc3)CC4)cc21)S(=O)(=O)c1c(Cl)cc(Cl)cc1Cl (stereo not drawn) [IND_CC-406, 2,4,6-Trichloro-N-methyl-N-[6-(9-pyridin-4-yl-3,9-diazaspiro[5.5]undecane-3-carbonyl)-2,3-dihydro-1H-inden-1-yl]-benzenesulfonic acid amide] here?
Its inhibition at 10 µM is 102%.
